{"source": "patent US20020018768A1", "about": "“Control of gene expression” (YISSUM RESEARCH DEVELOPMENT COMPANY OF THE HEBREW …, priority 1999, published 2002)", "tested_on": "CFTR transcripts carrying the 3849+10 kb C→T mutation in 091398K cells", "experiment": "Splicing of native CFTR transcripts in 091398K nasal polyp epithelial cell line after transient transfection with splicing factors (DAC-30)", "format": "cell-based", "conditions": "transfection efficiency ~60%, untreated 21%", "description": "A polyp sample from a CF patient, compound heterozygous for the splicing mutation 3849+10 kb C→T and the W 1282X mutations was obtained. This patient suffered from nasal polyps and underwent nasal polypectomy. An epithelial cell line (091398K) was established from the polyp sample in collaboration with Dr. J. Yankaskas from the University of North Carolina. […] Thus a system in which the effect of splicing factors or) a native CFTR gene could be studied, was established.\nTransient transfections of 091398 k cells with cellular factors were performed, using DAC-30. […] The viral factor E4-oRF3 slightly promoted exon inclusion and led to an increase in, the level of aberrantly spliced transcripts (21% to 28%). Thus, the mean effect could have reached ˜35%."}
{"substance": "ASF/SF2: cellular SR protein splicing factor, overexpressed by transient transfection", "values": [{"measurement": "level of aberrantly spliced CFTR transcripts after overexpression", "value": 11, "unit": "%"}]}
